Experimental data: EP4772514A1, “MACROCYCLIC COMPOUNDS, PREPARATION METHOD THEREFOR, AND USE THEREOF” (Genfleet Therapeutics (Shanghai) Inc., priority 2023, dated 2025)

Tests used:
Assay type in all cases: cell-based
[1] = tested on: p-ERK; assay: Cell p-ERK assay (HTRF, Advance ERK phospho-T202/Y204 kit) in NCI-H441 cells; conditions: Homo sapiens, NCI-H441, 3 h, NCI-H441, human non-small cell lung cancer cell strain, KRAS G12V mutation; 3 h compound incubation
Procedure, shortened: (§1)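 AsPC-1 (KRAS G12D) or NCI-H441 (KRAS G12V) cells seeded overnight, then treated 3 h at 37 °C with compound (0.1% DMSO) in RPMI-1640/10% FBS. Lysates assayed for ERK phospho-T202/Y204 by HTRF; inhibition vs DMSO and blank wells, IC50 from four-parameter fit.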

[2] = tested on: p-ERK; assay: Cell p-ERK assay (HTRF, Advance ERK phospho-T202/Y204 kit) in AsPC-1 cells; conditions: ASPC1; AsPC-1, human pancreatic cancer cell strain, KRAS G12D mutation; 3 h compound incubation
Procedure, shortened: as §1

[3] = tested on: NCI-H441 cells; assay: 3D cell proliferation assay (CellTiter Glo-3D) in NCI-H441 cells; conditions: Homo sapiens, NCI-H441, 120 h, NCI-H441, human lung cancer cell strain, KRAS G12V mutation; 3D culture, 2% FBS, 5 days; read-out: H441 AP IC50
Procedure, shortened: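 KRAS^G12V NCI-H441 and KRAS^G12D AsPC-1 cells (800 cells/well each) grown in RPMI-1640 with 2% FBS and treated the day after seeding with 3.16-fold compound dilutions (0.1% DMSO) for 5 days at 37 °C. Viability by CellTiter-Glo 3D luminescence; inhibition versus DMSO and cell-free controls, IC50 from four-parameter fit.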

[4] = tested on: AsPC-1 cells; assay: 3D cell proliferation assay (CellTiter Glo-3D) in AsPC-1 cells; conditions: ASPC1, 120 h; AsPC-1, human pancreatic cancer cell strain, KRAS G12D mutation; 3D culture, 2% FBS, 5 days; read-out: AsPC-1 AP IC50
From the text: MIA PaCa-2 cells were purchased from ATCC, Cat. No. CRL-1420; AsPC-1 cells were purchased from ATCC, Cat. No. CRL-1682; NCI-H441 cells were purchased from ATCC, Cat. No. HTB-174; NCI-H1975 cells were purchased from ATCC, Cat. No. CRL-5908; DMEM medium was purchased from Gibco, Cat. No. 11995-065; RPMI-1640 medium was purchased from Gibco, Cat. No. 11875-093; FBS was purchased from Gibco, Cat. No. 10099-141C; penicillin/streptomycin double-antibiotic solution (PS) was purchased from Gibco, Cat. No. 15140-122; Horse serum was purchased from Gibco, Cat. No. 16050130; trypsin (containing EDTA) was purchased from Gibco, Cat. No. 25200-072; DMSO was purchased from VWRAMRESCO, Cat. No. 0231-500ML; 384-well cell culture plates were purchased from Corning, Cat. No. 3830; white-bottomed, opaque 384-well assay plates were purchased from Corning, Cat. No. 3570; CellTiter Glo-3D kit was purchased from Promega, Cat. No. G9683; cell counter was purchased from CHEMOMETEC, model: NC-200; microplate reader was purchased from PerkinElmer, model: EnVision.
MIA PaCa-2, a human pancreatic cancer cell strain endogenously containing a KRAS^G12Cmutation, was cultured in a complete medium containing DMEM + 10% FBS + 2.5% Horse serum + 1% PS. AsPC-1, a human pancreatic cancer cell strain endogenously containing a KRAS^G12D mutation, was cultured in a complete medium containing RPMI-1640 + 10% FBS + 1% PS. NCI-H441 cells, a human lung cancer cell strain endogenously containing a KRAS^G12V mutation, were cultured in a complete medium containing RPMI-1640 + 10% FBS + 1% PS. NCI-H1975, a KRAS wild-type human lung cancer cell strain whose cell proliferation […], was cultured in a complete medium containing RPMI-1640 + 10% FBS + 1% PS.
The cells were digested with trypsin (containing EDTA), collected in their respective low-serum complete media containing 2% FBS (for MIA Paca-2 cell culture: DMEM + 2% FBS + 0.5% Horse serum + 1% PS), and counted. After the cell density was adjusted as required, MIA PaCa-2 cells (200 cells/well), AsPC-1 cells (800 cells/well), NCI-H441 cells (800 cells/well), or NCI-H1975 cells (400 cells/well) were seeded into a 384-well cell culture plate, with the volume of the medium in each well being 45 µL. The cell culture plate was incubated in an incubator at 37 °C with 5% CO2 overnight. A series of 3.16-fold gradient dilutions of a 1000× compound stock solution were prepared with DMSO, and then diluted 100-fold with the complete medium containing 2% FBS described above to give 10× compound stock solutions. On the day after cell seeding, 5 µL of the 10× compound stock solution was added to each cell culture well. As a result, the final concentration of the compound in the cell culture well became 1×, and the DMSO content in the well was 0.1%. In addition to the compound-treated wells described above, cell-containing DMSO control wells (with 5 µL of the complete medium containing 1% DMSO added to each well) and cell-free medium control wells (containing 50 µL of the complete medium with 2% FBS) were also set. The culture plate was incubated in an incubator at 37 °C with 5% CO2 for another 5 days, and then 30 µL of CellTiter-Glo working solution was added to each well. The mixture was well mixed, incubated for 30 min, left to stand at room temperature for 30 min, and then transferred to a white-bottomed, opaque 384-well assay plate at 40 µL/well. The chemiluminescence values (RLU) were measured using a microplate reader, and the cell proliferation inhibition rate for each well was calculated: IR(%) = (RLUDMSO - RLUcompound)/(RLUDMSO - RLUblank) × 100%, where RLUDMSO is the average RLU signal value from the DMSO control well samples, RLUblank is the average RLU signal value from the medium control well samples, and RLUcompound is the RLU signal value from the compound-treated well samples. […]

Row | IC50 [1] | IC50 [2] | IC50 [3] | IC50 [4] | Compound
1 | 2.03 nM | 3.6 nM | 1.12 nM | 1.54 nM | CCn1cc2c(c1-c1cc(C#CCN3CCC3)cnc1[C@H](C)OC)CC(C)(C)COC(=O)[C@@H]1CCCN(N1)C(=O)[C@@H](NC(=O)[C@H]1[C@H](C)[C@@H]1C)Cc1nc(cs1)/C=C/2 (atropisomer, axis not shown; (Ra)) [Compound Z70, (1r,2R,3S)-N-((4^2Z, 8^3S,2E,6S)-(Ra)-1^5-(5-(3-(azetidin-1-yl)prop-1-yn-1-yl)-2-((S)-1-methoxyethyl)pyridin-3-yl)-1^1-ethyl-12,12-dimethyl-7,9-dioxo-8^1,8^2,8^3,8^4,8^5,8^6-hexahydro-1^1H-10-oxa-4(4,2)-thiazola-8(1,3)-pyridazina-1(3,4)-pyrrolacyclotridecaphan-2-en-6-yl)-2,3-dimethylcyclopropane-1-carboxamide]
2 | 0.88 nM | 1.73 nM | 0.91 nM | 1.34 nM | CCn1nc2c(c1-c1cc(C#CCN3CCC(C#N)CC3)cnc1[C@H](C)OC)CC(C)(C)COC(=O)[C@@H]1CCCN(N1)C(=O)[C@@H](NC(=O)[C@H]1[C@H](C)[C@@H]1C)Cc1nc(cs1)/C=C/2 (atropisomer, axis not shown; (Ra)) [Compound Z73, (1r,2R,3S)-N-((4^2Z,8^3S,2E,6S)-(Ra)-1^5-(5-(3-(4-cyanopiperidin-1-yl)prop-1-yn-1-yl)-2-((S)-1-methoxyethyl)pyridin-3-yl)-1^1-ethyl-12,12-dimethyl-7,9-dioxo-8^1,8^2,8^3,8^4,8^5,8^6-hexahydro-1^1H-10-oxa-4(4,2)-thiazola-8(1,3)-pyridazina-1(3,4)-pyrrolacyclotridecaphan-2-en-6-yl)-2,3-dimethylcyclopropane-1-carboxamide]
3 | 0.2 nM | 0.24 nM | 0.18 nM | 0.16 nM | CCn1c(F)c2c(c1-c1cc(C#CCN3CCS(=O)(=O)CC3)cnc1[C@H](C)OC)CC(C)(C)COC(=O)[C@@H]1CCCN(N1)C(=O)[C@@H](NC(=O)[C@H]1[C@H](C)[C@@H]1C)Cc1nc(cs1)/C=C/2 (atropisomer, axis not shown; (Ra)) [Compound Z80, (1r,2R,3S)-N-((4^2Z,8^3S,2E,6S)-(Ra)-1^5-(5-(3-(1,1-dioxidothiomorpholino)prop-1-yn-1-yl)-2-((S)-1-methoxyethyl)pyridin-3-yl)-1^1-ethyl-1^2-fluoro-12,12-dimethy^l-7,9-dioxo-8^1,8^2,8^3,8^4,8^5,8^6-hexahydro-1^1H-10-oxa-4(4,2)-thiazola-8(1,3)-pyridazina-1(3,4)-pyrrolacyclotridecaphan-2-en-6-yl)-2,3-dimethylcyclopropane-1-carboxamide]
4 | 0.23 nM | 0.13 nM | 0.15 nM | 0.11 nM | CCn1cc2c(c1-c1cc(C#CCN3CCC(C#N)(CN)CC3)cnc1[C@H](C)OC)CC(C)(C)COC(=O)[C@@H]1CCCN(N1)C(=O)[C@@H](NC(=O)[C@H]1[C@@H]3COC[C@@H]31)Cc1nc(co1)/C=C/2 (atropisomer, axis not shown; (Ra)) [Compound Z89, (1R,5S,6r)-N-((4^2Z,8^3S,2E, 6S)-(Ra)-1^5-(5-(3-(4-(aminomethyl)-4-cyanopiperidin-1-yl)prop-1-yn-1-yl)-2-((S)-1-methoxyethyl)pyridin-3-yl)-1^1-ethyl-12,12-dimethyl-7,9-dioxo-8^1,8^2,8^3,8^4,8^5,8^6-hexahydro-1^1 H-10-oxa-4(4,2)-oxazola-8(1,3)-pyridazina-1(3,4)-pyrrolacyclotridecaphan-2-en-6-yl)-3-oxabicyclo[3.1.0]hexane-6-carboxamide]
